Data on 15 compounds can be found in patent publication US8933233B2, “1,3,4-oxadiazole and 1,3,4-thiadiazole β-lactamase inhibitors” (priority 2012, dated 2015).

Each structure is given as a SMILES string. Structures can show the parent of a compound that is named as a salt.

The test system of assay [1] is bacterial strains that express KPC β-lactamases. The assay can be described thus: Synergy MIC / standard BLI potentiation MIC assay, strains expressing KPC β-lactamases. Type of assay: cell-based, isogenic E. coli and clinical isolates. Particulars: more active for at least one KPC strain and/or better spectrum; comparator Avibactam. The protocol: Unless otherwise indicated, the activity of the BLI compounds can be described by the MIC value obtained from a Synergy MIC assay or a BLI potentiation assay (e.g as described herein), both of which are run in the presence of a β-lactam.
The experimental protocol was performed according to Clinical and Laboratory Standards Institute (CLSI) guidelines with modifications as described below (CLSI guidelines can be derived from the CLSI document M07-A9 published in January 2012: “Methods for Dilution Antimicrobial Susceptibility Tests for Bacteria That Grow Aerobically; Approved Standard-Ninth Edition”).
To prepare for MIC testing, frozen glycerol stocks of clinical isolates (Klebsiella pneumoniae, Eschericia coli, Enterobacter spp, Citrobacter spp, or Pseudomonas aeruginosa) were used to streak for isolated colonies on rich, non-selective, tryptic soy agar containing 5% sheep's blood (TSAB). Frozen glycerol stocks of laboratory engineered, isogenic E. coli strains, which contain cloned β-lactamase expressing plasmids were used to streak for isolated colonies on rich, selective LB agar supplemented with 25 μg/mL tetracycline to maintain the plasmid. All strains were incubated at 37° C. for 18-24 hrs.
On the day of testing, primary cultures were started by scraping off 5-10 colonies from the TSAB plates containing clinical strains or the tetracycline supplemented LB plates containing engineered strains. The clinical strain material was suspended in ˜5 mL of cation adjusted Mueller Hinton Broth (CAMHB) in 14 mL culture tubes. The engineered strain material was suspended in CAMHB (supplemented with 25 μg/mL tetracycline) in 14 mL culture tubes. All strains were incubated at 37° C. with aeration (200 rpm) for ˜2 hrs until the optical density at 600 nm (OD600) was ≧0.1.
The two compound components of the assay were each diluted in CAMHB and added to the 96-well broth microdilution assay plates. 50 μL of the β-lactam was added to each well of the assay plate in 2-fold dilutions with final concentrations ranging from 128 to 0.13 μg/mL. 25 μL of the BLI compound was added to all wells in the broth microdilution plates at a final concentration of 4 μg/mL. Inoculum cultures were prepared by standardizing the primary cultures to OD600=0.1 and then adding 20 μL of the adjusted primary culture per 1 mL CAMHB for clinical strains or CAMHB (supplemented with tetracycline at 100 μg/mL) for engineered strains, so that the final inoculum density was ˜10^5 colony forming units per milliliter. Diluted inoculum cultures were used to inoculate 25 μL per well in 96-well broth microdilution assay plates. The final volume of each well was 100 μL and contained a β-lactam at different concentrations, a BLIcompound at 4 μg/mL concentration, the bacterial culture at an OD600 of approximately 0.001 and when necessary tetracycline at 25 μg/mL.
Plates were incubated for 18-20 hours at 37° C. with aeration (200 rpm). Following incubation, growth was confirmed visually placing plates over a viewing apparatus (stand with a mirror underneath) and then OD600 was measured using a SpectraMax 340PC384 plate reader (Molecular Devices, Sunnyvale, Calif.). Growth was defined as turbidity that could be detected with the naked eye or achieving minimum OD600 of 0.1. MIC values were defined as the lowest concentration producing no visible turbidity.
The synergy MIC (sMIC) assay determines the concentration of the BLI required to potentiate the activity of a fixed concentration of a β-lactam antibiotic against β-lactamase producing bacterial strains. The experimental protocol was performed according to Clinical and Laboratory Standards Institute (CLSI) guidelines with modifications as described below (CLSI guidelines can be derived from the CLSI document M07-A9 published in January 2012: “Methods for Dilution Antimicrobial Susceptibility Tests for Bacteria That Grow Aerobically; Approved Standard-Ninth Edition”). […]

Assay [2] deals with bacterial strains that express the class D cephalosporinase OXA-15. The assay can be described thus: Synergy MIC / standard BLI potentiation MIC assay, strains expressing OXA-15. Type of assay: cell-based, E. coli. Particulars: in presence of a β-lactam; comparator Avibactam (CCC). In outline: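 Broth microdilution in CAMHB per CLSI M07-A9, ~10^5 CFU/mL inoculum, 18–20 h at 37 °C with aeration; engineered E. coli kept with 25 μg/mL tetracycline. β-lactam 2-fold from 128 to 0.13 μg/mL with BLI fixed at 4 μg/mL, or BLI serially diluted with β-lactam fixed; MIC is lowest concentration without visible turbidity.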

Turning to `NCCc1nnc([C@@H]2CC[C@@H]3CN2C(=O)N3OS(=O)(=O)O)o1` [Compound 703, (2S,5R)-2-(5-(2-aminoethyl)-1,3,4-oxadiazol-2-yl)-7-oxo-1,6-diazabicyclo[3.2.1]octan-6-yl hydrogen sulfate], the “activity and/or spectrum of activity against bacterial strains that express KPC β-lactamases, compared with Avibactam” value in assay [1] was “more active than Avibactam”. The “activity against bacterial strains that express OXA-15, compared with Avibactam” value in assay [2] is on record as “more active than Avibactam”.

Take `N=C(N)NC[C@@H](O)c1nnc([C@@H]2CC[C@@H]3CN2C(=O)N3OS(=O)(=O)O)o1` [Compound 731, (2S,5R)-2-(5-((R)-2-guanidino-1-hydroxyethyl)-1,3,4-oxadiazol-2-yl)-7-oxo-1,6-diazabicyclo[3.2.1]octan-6-yl hydrogen sulfate]: in assay [1], the “activity and/or spectrum of activity against bacterial strains that express KPC β-lactamases, compared with Avibactam” value is recorded as “more active than Avibactam”. In assay [2], the “activity against bacterial strains that express OXA-15, compared with Avibactam” value is on record as “more active than Avibactam”.

Take `O=C1N2C[C@@H](CC[C@H]2c2nnc(C3CC4(CNC4)C3)o2)N1OS(=O)(=O)O` [Compound 750, (2S,5R)-2-(5-(2-azaspiro[3.3]heptan-6-yl)-1,3,4-oxadiazol-2-yl)-7-oxo-1,6-diazabicyclo[3.2.1]octan-6-yl hydrogen sulfate]: the “activity and/or spectrum of activity against bacterial strains that express KPC β-lactamases, compared with Avibactam” value in assay [1] is on record as “more active than Avibactam”. Also, the “activity against bacterial strains that express OXA-15, compared with Avibactam” value in assay [2] is “more active than Avibactam”.

Turning to `N=C(N)N[C@H]1C[C@@H](c2nnc([C@@H]3CC[C@@H]4CN3C(=O)N4OS(=O)(=O)O)s2)C1` [Compound 784, (2S,5R)-2-(5-((1s,3R)-3-guanidinocyclobutyl)-1,3,4-thiadiazol-2-yl)-7-oxo-1,6-diazabicyclo[3.2.1]octan-6-yl hydrogen sulfate], the “activity and/or spectrum of activity against bacterial strains that express KPC β-lactamases, compared with Avibactam” value in assay [1] was “more active than Avibactam”. In addition, the “activity against bacterial strains that express OXA-15, compared with Avibactam” value in assay [2] is “more active than Avibactam”.

With `O=C1N2C[C@@H](CC[C@H]2c2nnc(C3CCNCC3)o2)N1OS(=O)(=O)O` [Compound 711, (2S,5R)-7-oxo-2-(5-(piperidin-4-yl)-1,3,4-oxadiazol-2-yl)-1,6-diazabicyclo[3.2.1]octan-6-yl hydrogen sulfate], in assay [1], the “activity and/or spectrum of activity against bacterial strains that express KPC β-lactamases, compared with Avibactam” value is on record as “more active than Avibactam”. Also, in assay [2], the “activity against bacterial strains that express OXA-15, compared with Avibactam” value is listed as “more active than Avibactam”.

As to `NCCCCc1nnc([C@@H]2CC[C@@H]3CN2C(=O)N3OS(=O)(=O)O)o1` [Compound 735, (2S,5R)-2-(5-(4-aminobutyl)-1,3,4-oxadiazol-2-yl)-7-oxo-1,6-diazabicyclo[3.2.1]octan-6-yl hydrogen sulfate], in assay [1], the “activity and/or spectrum of activity against bacterial strains that express KPC β-lactamases, compared with Avibactam” value is on record as “more active than Avibactam”. For the same compound, the “activity against bacterial strains that express OXA-15, compared with Avibactam” value in assay [2] was “more active than Avibactam”.

In the case of `O=C1N2C[C@@H](CC[C@H]2c2nnc(CN3CCNCC3)o2)N1OS(=O)(=O)O` [Compound 777, (2S,5R)-7-oxo-2-(5-(piperazin-1-ylmethyl)-1,3,4-oxadiazol-2-yl)-1,6-diazabicyclo[3.2.1]octan-6-yl hydrogen sulfate], in assay [1], the “activity and/or spectrum of activity against bacterial strains that express KPC β-lactamases, compared with Avibactam” value is given as “more active than Avibactam”. Further, the “activity against bacterial strains that express OXA-15, compared with Avibactam” value in assay [2] is “more active than Avibactam”.

For `N=C(N)NCC(O)Cc1nnc([C@@H]2CC[C@@H]3CN2C(=O)N3OS(=O)(=O)O)o1` (stereo partly drawn) [Compound 730, (2S,5R)-2-(5-(3-guanidino-2-hydroxypropyl)-1,3,4-oxadiazol-2-yl)-7-oxo-1,6-diazabicyclo[3.2.1]octan-6-yl hydrogen sulfate], in assay [1], the “activity and/or spectrum of activity against bacterial strains that express KPC β-lactamases, compared with Avibactam” value was “more active than Avibactam”. Also, the “activity against bacterial strains that express OXA-15, compared with Avibactam” value in assay [2] was “more active than Avibactam”.

With `NCc1nnc([C@@H]2CC[C@@H]3CN2C(=O)N3OS(=O)(=O)O)o1` [Compound 702, (2S,5R)-2-(5-(aminomethyl)-1,3,4-oxadiazol-2-yl)-7-oxo-1,6-diazabicyclo[3.2.1]octan-6-yl hydrogen sulfate], the “activity and/or spectrum of activity against bacterial strains that express KPC β-lactamases, compared with Avibactam” value in assay [1] was “more active than Avibactam”. In addition, the “activity against bacterial strains that express OXA-15, compared with Avibactam” value in assay [2] was “more active than Avibactam”.

As for `O=C1N2C[C@@H](CC[C@H]2c2nnco2)N1OS(=O)(=O)O` [Compound 701, (2S,5R)-2-(1,3,4-oxadiazol-2-yl)-7-oxo-1,6-diazabicyclo[3.2.1]octan-6-yl hydrogen sulfate], the “activity and/or spectrum of activity against bacterial strains that express KPC β-lactamases, compared with Avibactam” value in assay [1] is given as “more active than Avibactam”. In assay [2], the “activity against bacterial strains that express OXA-15, compared with Avibactam” value is “more active than Avibactam”.

`N=C(N)NCc1nnc([C@@H]2CC[C@@H]3CN2C(=O)N3OS(=O)(=O)O)s1` [Compound 721, (2S,5R)-2-(5-(guanidinomethyl)-1,3,4-thiadiazol-2-yl)-7-oxo-1,6-diazabicyclo[3.2.1]octan-6-yl hydrogen sulfate]: in assay [1], the “activity and/or spectrum of activity against bacterial strains that express KPC β-lactamases, compared with Avibactam” value was “more active than Avibactam”. For the same compound, the “activity against bacterial strains that express OXA-15, compared with Avibactam” value in assay [2] is recorded as “more active than Avibactam”.

On to `N[C@@H]1CN[C@@H](c2nnc([C@@H]3CC[C@@H]4CN3C(=O)N4OS(=O)(=O)O)o2)C1` [Compound 763, (2S,5R)-2-(5-((2R,4S)-4-aminopyrrolidin-2-yl)-1,3,4-oxadiazol-2-yl)-7-oxo-1,6-diazabicyclo[3.2.1]octan-6-yl hydrogen sulfate], for which the “activity and/or spectrum of activity against bacterial strains that express KPC β-lactamases, compared with Avibactam” value in assay [1] is listed as “more active than Avibactam”. Besides, the “activity against bacterial strains that express OXA-15, compared with Avibactam” value in assay [2] is recorded as “more active than Avibactam”.

Consider `O=C1N2C[C@@H](CC[C@H]2c2nnc(C3CCNC3)o2)N1OS(=O)(=O)O` (stereo partly drawn) [Compound 710, (2S,5R)-7-oxo-2-(5-(pyrrolidin-3-yl)-1,3,4-oxadiazol-2-yl)-1,6-diazabicyclo[3.2.1]octan-6-yl hydrogen sulfate], for which the “activity and/or spectrum of activity against bacterial strains that express KPC β-lactamases, compared with Avibactam” value in assay [1] was “more active than Avibactam”. Besides, in assay [2], the “activity against bacterial strains that express OXA-15, compared with Avibactam” value is recorded as “more active than Avibactam”.

`NC1CC(NCc2nnc([C@@H]3CC[C@@H]4CN3C(=O)N4OS(=O)(=O)O)o2)C1` (stereo partly drawn) [Compound 755, (2S,5R)-2-(5-(((3-aminocyclobutyl)amino)methyl)-1,3,4-oxadiazol-2-yl)-7-oxo-1,6-diazabicyclo[3.2.1]octan-6-yl hydrogen sulfate]: the “activity and/or spectrum of activity against bacterial strains that express KPC β-lactamases, compared with Avibactam” value in assay [1] was “more active than Avibactam”. Also, the “activity against bacterial strains that express OXA-15, compared with Avibactam” value in assay [2] is on record as “more active than Avibactam”.

Consider `N[C@H]1CC[C@@H](c2nnc([C@@H]3CC[C@@H]4CN3C(=O)N4OS(=O)(=O)O)o2)C1` [Compound 768, (2S,5R)-2-(5-((1R,3S)-3-aminocyclopentyl)-1,3,4-oxadiazol-2-yl)-7-oxo-1,6-diazabicyclo[3.2.1]octan-6-yl hydrogen sulfate], for which, in assay [1], the “activity and/or spectrum of activity against bacterial strains that express KPC β-lactamases, compared with Avibactam” value is on record as “more active than Avibactam”. The “activity against bacterial strains that express OXA-15, compared with Avibactam” value in assay [2] was “more active than Avibactam”.
